Test results as given in patent US7678812B2, “Aminotetralin-derived urea modulators of vanilloid VR1 receptor” (Janssen Pharmaceutica NV, priority 2002, dated 2010).
pEC50, pIC50, pKi: −log10 of the molar value. Values joined by “and” are separate entries in the source; they are usually repeats but may differ in a detail not shown here. Equal values may be shown once. Read-outs that look alike come from different tables or passages of the source.

Assays:
hVR1 receptors [1] = biological target: T1, hVR1 receptors (Homo sapiens, UniProt Q8NER1); test: [3H] RTX binding assay, human VR1; set-up: expressed in transfected cells; host or cells: HEK293 (membrane preparation); settings: inhibition of [3H] RTX binding, membranes of HEK293 cells transfected with human VR1
Experimental: Compounds of the present invention were tested for their ability to inhibit the binding of [^3H] RTX to hVR1 receptors in a [^3H] RTX binding assay as previously described (Zhang, Sui-Po. Improved ligand binding assays for vanilloid receptors. PCT Int. Appl. (2002), 29 pp. CODEN: PIXXD2 WO 0233411 A1 20020425 AN 2002:315209; Grant, Elfrida R.; Dubin, Adrienne E.; Zhang, Sui-Po; Zivin, Robert A.; Zhong, Zhong Simultaneous intracellular calcium and sodium flux imaging in human vanilloid receptor 1 (VR1)-transfected human embryonic kidney cells: a method to resolve ionic dependence of VR1-mediated cell death. Journal of Pharmacology and Experimental Therapeutics (2002), 300(1), 9-17.)
HEK293 cells were transfected with human VR1 vanilloid receptors and washed with Hank's Balanced Salt Solution, dissociated with cell dissociation buffer (Sigma), and then centrifuged at 1000×g for 5 min. Cell pellets were homogenized in cold 20 mM HEPES buffer, pH 7.4, containing 5.8 mM NaCl, 320 mM sucrose, 2 mM MgCl2, 0.75 CaCl2 and 5 mM KCl and centrifuged at 1000×g for 15 min. The resultant supernate was then centrifuged at 40000×g for 15 min. The pelleted membranes were kept in an −80° C. freezer.
Approximately 120 μg protein/ml from membranes were incubated with indicated concentrations of [^3H] RTX in 0.5 ml of the HEPES buffer (pH 7.4) containing 0.25 mg/mL fatty acid-free bovine serum albumin at 37° C. for 60 min. The reaction mixture was then cooled to 4° C., 0.1 mg α1-acid glycoprotein added to each sample and incubated at 4° C. for 15 min. The samples were centrifuged at 18500×g for 15 min. The tip of the microcentrifuge tube containing the pellet was cut off. Bound radioactivity was quantified by scintillation counting. Non-specific binding was tested in the presence of 200 nM unlabeled RTX.

[2] = tested on: carrageenan paw-induced thermal hyperalgesia; test: Carrageenan paw-induced thermal hyperalgesia; format: in vivo, rat; settings: Rattus norvegicus, po
Experimental: Each rat was placed on a heated surface (51° C.) in order to measure the time necessary to elicit a response, and an initial (baseline) response time to a thermal stimuli was recorded for each animal. A response is defined as any shaking, licking, or tucking of the treated paw or jumping. Animals not treated with a test compound respond in approximately 20 seconds. The maximal exposure time permitted is 60 seconds to prevent tissue damage. Rats were injected with an irritant (e.g., 1% carrageenan solution in 0.9% saline) subcutaneously into the sub-plantar tissue of the left hind paw to stimulate an acute inflammatory reaction.
Two hours later, the response time of the animal to the thermal stimulus was evaluated and compared to the animal's baseline response time. This shorter response time was recorded as percent hyperalgesia (% H). A cut-off value for % H (usually 75%) was used during analysis to ensure that the animals were hyperalgesic. Animals were then dosed with test drug or vehicle.
At some time(s) later (typically 45 and 90 minutes), the response time of the animal to the thermal stimulus was again evaluated. For each time point, a percent reversal of hyperalgesia (% R) was calculated using the following formula: % R=(Drug Latency−Carrageenan latency)/(Baseline latency−Carrageenan latency). ED50 values were calculated from % R obtained at several drug doses.

[3] = tested on: capsaicin-induced guinea pig bronchial ring contraction; test: Isolated guinea pig bronchial rings, capsaicin-induced contraction (organ bath); settings: capsaicin concentration-response shift; 105 at 1000 nM; ±SEM
Experimental: Aminotetralin VR1 antagonists were tested for their potency to block capsaicin-induced guinea pig bronchial ring contraction in a standard in vitro organ bath assay [Tucker, 2001]. Two mm rings of bronchial tissue obtained from male guinea pigs (325 g) were suspended in normal Krebs solution between two wire hooks under an initial loading tension of 1 gram. The saline was maintained in a 5% CO2 and 95% O2 atmosphere at 37° C. in the presence of indomethacin (5 μM). A sub-maximal dose of 5-Methylfurmethide (5Mef, 1 μM) was added to each tissue to determine responsiveness using an isometric force transducer. After washout, tissues were exposed to compounds or vehicle for 30 min, treated with thiorphan (10 μM, 5% Na2CO3), and primed using KCl in increasing linear concentrations from 1 mM at 1 mM intervals until a slight increase in muscle tone was induced (˜1% of 5Mef response). […] The dose response curve was calculated as % max of the 5-Mef response and estimated pA2 were determined [Tucker, 2001]).

Rat VR1 [4] = biological target: T2, Rat VR1 (Rattus norvegicus, UniProt O35433); test: [3H]-RTX binding assay using rat tissue (spinal cord); set-up: Rat spinal cord was homogenized twice with a Polytron; from tissue; host or cells: rat spinal cord membranes; settings: rat spinal cord membranes
Experimental: Alternatively, a binding assay using rat tissue was used. Rat spinal cord was homogenized twice with a Polytron and centrifuged at 3000 rpm for 10 min in HEPES buffer containing 20 mM HEPES, pH 7.4, NaCl 5.8 mM, sucrose 320 mM, MgCl2 2 mM, CaCl2 0.75 mM and KCl 5 mM. The supernatant was then centrifuged at 18,000 rpm for 20 min. The pellet was saved in a tube and 10 ml assay buffer was added into the tube. The pellet and buffer were mixed with a Polytron. The assay contained 120 μg/ml membrane protein and 0.3-0.6 nM [^3H]-RTX (NEN, Boston) in a total volume of 0.5 ml HEPES buffer. Following-incubation for 60 min at 37 C, the samples were cooled down on ice, and 100 mg of α-acid glycoprotein were added into the samples. After centrifugation at 13,000 rpm for 15 min, the supernatant was aspirated and the tips of tubes were cut off and placed into 6 ml vials. Data were calculated according to the equation: % inhibition=(total binding−binding)*100/(total binding−non specific binding). Ki value values were calculated using a Prism program.

[5] = biological target: T3, VR1 expressed endogenously on small rat dorsal root ganglion (DRG) neurons (Rattus norvegicus, UniProt O35433); test: Electrophysiologic functional assay using dissociated rat DRG cells (whole cell patch clamp); format: cell-based; settings: compound concentration 1 uM; initial response to 0.3 uM capsaicin
T3 construct: VR1 expressed endogenously on small rat dorsal root ganglion (DRG) neurons; endogenous in cells; host or cells: dissociated DRG neurons from normal rats
Experimental: Compounds 42, 95, 101, 105 and 106 were tested for their activity on VR1 expressed endogenously on small rat dorsal root ganglion (DRG) neurons. DRG neurons from normal rats were dissociated (see methods in Chaplan et al., 2003) and whole cell currents mediated by VR1 were recorded using the whole cell patch clamp technique. […] This was followed by application of 10 μM CAP in the presence of compound. […] The ability of 1 and 10 μM CAP to cause an increased current after exposure to a compound of the invention was compared to controls.

[6] = tested on: capsaicin-induced cough responses; test: Capsaicin-induced cough (antitussive efficacy); format: in vivo, guinea pig; settings: codeine 25 mg/kg IP at -60 min; capsaicin aerosol 15 μM; vehicle 3.0±0.5; P<0.001
Experimental: The antitussive activity of intraperitoneally (IP) administered compound is assessed at a single dose level against capsaicin-induced cough responses as compared to positive and vehicle controls. Thirty-six male Dunkin-Hartley guinea pigs (295-590 g, mean=425 g) are randomly allocated to one of three groups (n=12 guinea pigs per group). […] Guinea pigs are dosed IP at —60 min with vehicle (15% Solutol in 5% dextrose solution); the positive control codeine (25 mg/kg), or test compound (20 mg/kg in 15% Solutol in 5% dextrose solution). Individual guinea pigs are placed in an exposure chamber with an airflow of 3 L/min at —10 min to acclimatize. […] The mean ±SEM number of capsaicin-induced cough responses recorded in vehicle pre-treated guinea pigs was 3.0±0.5. […] ANOVA statistical analysis was used to determine the level of significance.

hVR1 receptors [7] = biological target: T1, hVR1 receptors; test: Broadly stimulated recombinant human VR1 functional assay (Ca2+ influx, FLIPR); format: cell-based; set-up: expressed in transfected cells; host or cells: HEK293
Rat VR1 [8] = biological target: T2, Rat VR1; test: Broadly stimulated recombinant rat VR1 functional assay (Ca2+ influx, FLIPR); format: cell-based; set-up: expressed in transfected cells
Excerpt: When nociceptors are exposed to tissue damaging stimuli, VR1 receptors are activated by a plethora of stimuli. In an effort to identify potent and efficacious antagonists at human and rat VR1 that were active under conditions simulating aspects of in vivo inflammation functional assays were developed using FLIPR to determine antagonist activity against endogenous activators and stimuli likely to be present in inflammation. Cell lines were constructed that stably expressed recombinant rat VR1 (rVR1/HEK293). Cells were exposed to various stimuli at their EC80, with the exception of the low pH and DTT stimuli.
Phoshorylation by PKC. […] Cells were challenged with 300 nM PMA (˜EC80) after 3 min in the indicated antagonist.
Anandamide. Anandamide is a brain-derived cannabinoid ligand that acts as a near full agonist at VR1 at low μM concentrations [Smart, 2000 #507].
Reactive oxygen species: Disturbances in the regulatory activities of free radicals may play a role in inflammation [Winrow, 1993]. Reactive oxygen species (ROS) such as H2O2 are formed in inflamed joints.
Reducing agents: The reducing agent DTT also directly activates VR1 [Vyklicky, 2002]. Cells were challenged with 5-10 mM DTT to stimulate VR1 after 3 min incubation in compound.
Since many of our animal models were in rat, we cloned the rat VR1 and expressed it stably in HEK293 cells.

T1 sequence (Q8NER1 whole entry): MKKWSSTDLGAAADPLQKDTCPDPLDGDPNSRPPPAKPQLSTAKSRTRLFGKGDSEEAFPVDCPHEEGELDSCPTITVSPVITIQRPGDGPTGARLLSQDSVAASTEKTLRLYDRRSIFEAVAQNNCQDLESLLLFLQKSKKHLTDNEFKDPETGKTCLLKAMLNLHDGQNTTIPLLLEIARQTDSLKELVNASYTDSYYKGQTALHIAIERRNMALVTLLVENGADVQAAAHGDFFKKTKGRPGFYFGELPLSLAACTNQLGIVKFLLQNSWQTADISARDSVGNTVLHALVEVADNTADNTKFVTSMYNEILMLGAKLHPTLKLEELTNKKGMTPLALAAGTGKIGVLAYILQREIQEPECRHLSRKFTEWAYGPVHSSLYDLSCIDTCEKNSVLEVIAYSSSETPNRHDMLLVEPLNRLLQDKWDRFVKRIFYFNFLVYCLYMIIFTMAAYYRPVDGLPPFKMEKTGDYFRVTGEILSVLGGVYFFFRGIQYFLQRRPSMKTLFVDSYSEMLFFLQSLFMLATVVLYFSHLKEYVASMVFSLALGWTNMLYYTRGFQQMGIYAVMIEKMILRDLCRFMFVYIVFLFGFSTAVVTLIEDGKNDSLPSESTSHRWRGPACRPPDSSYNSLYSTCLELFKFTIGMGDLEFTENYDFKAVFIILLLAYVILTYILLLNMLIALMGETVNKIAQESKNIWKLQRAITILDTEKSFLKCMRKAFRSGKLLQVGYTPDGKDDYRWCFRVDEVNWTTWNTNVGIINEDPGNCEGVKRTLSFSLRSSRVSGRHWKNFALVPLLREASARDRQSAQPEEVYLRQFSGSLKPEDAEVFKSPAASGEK
T2 sequence (O35433 whole entry): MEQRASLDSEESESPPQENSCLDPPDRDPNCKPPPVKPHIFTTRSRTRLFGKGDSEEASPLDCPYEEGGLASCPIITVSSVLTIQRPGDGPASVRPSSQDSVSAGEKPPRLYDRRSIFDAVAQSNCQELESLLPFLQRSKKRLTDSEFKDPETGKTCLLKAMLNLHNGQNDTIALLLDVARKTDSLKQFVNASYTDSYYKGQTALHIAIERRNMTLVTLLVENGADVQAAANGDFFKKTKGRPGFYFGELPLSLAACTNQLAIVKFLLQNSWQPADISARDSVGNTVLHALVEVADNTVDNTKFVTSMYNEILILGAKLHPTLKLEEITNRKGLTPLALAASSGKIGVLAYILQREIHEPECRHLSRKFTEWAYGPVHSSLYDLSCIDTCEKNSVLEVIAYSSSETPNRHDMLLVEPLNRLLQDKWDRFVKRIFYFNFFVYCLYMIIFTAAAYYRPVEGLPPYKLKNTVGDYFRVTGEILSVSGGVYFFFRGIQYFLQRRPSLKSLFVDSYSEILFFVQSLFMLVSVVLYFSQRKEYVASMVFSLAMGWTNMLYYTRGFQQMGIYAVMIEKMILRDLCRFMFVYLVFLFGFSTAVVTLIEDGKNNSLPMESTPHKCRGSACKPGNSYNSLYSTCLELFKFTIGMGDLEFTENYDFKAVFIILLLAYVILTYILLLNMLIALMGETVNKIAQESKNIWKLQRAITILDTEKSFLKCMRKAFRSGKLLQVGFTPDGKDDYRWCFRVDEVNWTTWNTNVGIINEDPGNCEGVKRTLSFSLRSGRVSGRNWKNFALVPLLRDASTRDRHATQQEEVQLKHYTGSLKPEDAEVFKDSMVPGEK
T3 sequence (O35433 whole entry): as above

O=C(Nc1cccc2c(Cl)nccc12)NC1CCc2cc(F)ccc2C1Cc1ccccc1 (single isomer, unassigned) [Compound 105]
pKi (hVR1 receptors [1]): 7.97 | ED50 ([2]; 1.5 h, p.o., at 90 min, read-out: ED50): 0.394 mg/kg | Estimated pA2 [3]: 6.2 and 6.2±0.11 and 6.2 +/− 0.11 | pKi (Rat VR1 [4]): 5.31 | % of the initial CAP response in presence of 1 uM CAP [5]: 0% and 8%

O=C(Nc1cccc2cnccc12)NC1CCc2cc(F)ccc2C1Cc1ccccc1 (racemic) [Compound 38a, 1-(1-Benzyl-6-fluoro-1,2,3,4-tetrahydronaphthalene-2-yl)-3-isoquinolin-5-yl-urea]
pKi (hVR1 receptors [1]): 8.75 | Estimated pA2 [3]: 8.0 and 8.0±0.02

COc1ccc2c3c1O[C@H]1[C@@H](O)C=C[C@H]4[C@@H](C2)N(C)CC[C@@]341 [codeine]
number of capsaicin-induced cough responses (mean ±SEM) [6]: 0.58±0.15 coughs

CCCCCCCCCCCCCC(=O)O[C@@H]1[C@@H](C)[C@@]2(O)[C@@H](C=C(CO)C[C@]3(O)C(=O)C(C)=C[C@@H]23)[C@@H]2C(C)(C)[C@]12OC(C)=O [PMA, phorbol-12-myristate-13-acetate, reference compound]
pEC50 (hVR1 receptors [7]; human recombinant VR1, increase in intracellular Ca2+, read-out: EC50 for PMA): 7.05 | pEC50 (Rat VR1 [8]; rat recombinant VR1, increase in intracellular Ca2+, read-out: EC50 for PMA): 7.05

COc1ccc2c(c1)CCC(NC(=O)Nc1cccc3cnccc13)C2Cc1ccccc1 (centres unmarked) [Compound 33, 1-(1-Benzyl-6-methoxy-1,2,3,4-tetrahydronaphthalene-2-yl)-3-isoquinolin-5-yl-urea]
increase in intracellular Ca2+ caused by acidic solutions, anandamide, PMA and H2O2 (hVR1 receptors [7]; human recombinant VR1, 3 min incubation in antagonist, dose dependent): completely abolished | pIC50 (hVR1 receptors [7]; recombinant human VR1, PMA at low pH, Ca2+ influx, read-out: IC50, PKC phosphorylation at low pH): 7.15 | pIC50 (hVR1 receptors [7]; recombinant human VR1, stimulus 0.015% H2O2, Ca2+ influx, read-out: IC50, H2O2 reactive oxygen species): 7.41 | pIC50 (hVR1 receptors [7]; recombinant human VR1, stimulus anandamide 10 μM, Ca2+ influx, read-out: IC50, Anandamide): 7.39 | pIC50 (hVR1 receptors [7]; recombinant human VR1, stimulus low pH (pH 6.5), Ca2+ influx, read-out: IC50, Low pH): 7.64 and 7.40 | pKi (hVR1 receptors [1]): 8.47 | ED50 ([2]; reversal of hyperalgesia, read-out: CgHP ED50): 0.276 mg/kg | Estimated pA2 [3]: 8.0 +/− 0.02 | increase in intracellular Ca2+ caused by acidic solutions, anandamide, PMA at low pH and H2O2 (Rat VR1 [8]; rat recombinant VR1, 3 min incubation in antagonist, dose dependent): completely abolished | pIC50 (Rat VR1 [8]; recombinant rat VR1, PMA at low pH, Ca2+ influx, read-out: IC50, PKC phosphorylation at low pH): 7.33 | pIC50 (Rat VR1 [8]; recombinant rat VR1, stimulus 0.015% H2O2, Ca2+ influx, read-out: IC50, H2O2): 7.48 | pIC50 (Rat VR1 [8]; recombinant rat VR1, stimulus anandamide 10 μM, Ca2+ influx, read-out: IC50, Anandamide): 7.42 | pIC50 (Rat VR1 [8]; recombinant rat VR1, stimulus low pH (pH 5.9), Ca2+ influx, read-out: IC50, Low pH): 6.77
